Patent US5856156A, “Microbial cholesterol dehydrogenase, process for its production and use” (Boehringer Mannheim GmbH, priority 1994, dated 1999)

Each compound was assayed on chol-DH (assay: Variation of the redox mediators used, chol-DH activity by the HPLC method). Conditions: relative chol-DH activity with the mediator as artificial electron acceptor, 37° C., pH 7.0.
Type: biochemical, Rhodococcus spec.
Set-up: reference not given here
Description: The enzyme sample was purified as described in example 2a) and subsequently its property of converting cholesterol was evaluated with the following methods.
An enzyme test was used to determine the chol-DH activity by quantifying the cholestenone formed in which the enzyme reaction proceeded for a defined time period before it was stopped by adding a protein-denaturing agent. Afterwards the amount of product was determined and expressed as μmol per minute and volume unit of the enzyme solution (=volume activity) or weight unit of the protein (=specific activity).
The cholestenone formed was quantified by HPLC analysis after stopping the chol-DH reaction:
One unit is the enzyme activity which oxidizes 1 μmol cholesterol per minute to cholestenone under the test conditions (37° C., pH 7.0). In this case the chol-DH activity is derived from the difference between the cholestenone concentrations of the test mixture and the blank (see above). [formula]
Apart from methyl-1,4-benzoquinone other redox mediators are suitable as electron acceptors for chol-DH. The chol-DH activity was determined by the HPLC method. Various redox mediators are listed in Table 1 that can serve as artificial electron acceptors for chol-DH.
With O=C1C(Cl)=CC(=Nc2ccc(O)cc2)C=C1Cl [2,6-dichlorophenol-indophenol] the “chol-DH [%]” value was 52%.
With O=Nc1ccc(N(CCO)CCO)cc1 [N,N-bis-2(hydroxyethyl)p-nitrosoaniline] the “chol-DH [%]” value was 45%.
With CN(C)c1ccc(N=O)cc1 [N,N-dimethy1-4-nitrosoaniline] the “chol-DH [%]” value was 95%.
In the case of CC1=CC(=O)C=CC1=O [methyl-1,4-benzoquinone], the “chol-DH [%]” value is reported as 100%.
For O=C1C=CC(=O)C=C1 [p-benzoquinone], the “chol-DH [%]” value was 109%.
O=C1C(Cl)=C(Cl)C(=O)C(Cl)=C1Cl [tetrachloro-p-benzoquinone] was tested, and the “chol-DH [%]” value was 27%.
